Columns and labels:
Experiment in all cases: relative viability (nuclei count vs DMSO), 5 days (fraction); higher = more cells survive
201T = test system: 201T
Outline: (§1)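 For relative viability, nuclei counts in treated wells were divided by those in vehicle wells. Lung cancer cell lines had been pin-tool dosed in 1536-well plates the day after seeding and cultured for 5 days, then fixed and stained in one step (final 0.05% Triton X-100, 1% formaldehyde, 1 ug/ml Hoechst) and imaged at 4×. Doses were one drug alone or a fixed anchor-drug dose plus five library-drug doses (not always all listed) in √10 steps, and values are duplicate-plate medians.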

COR-L23 = test system: COR-L23
Outline: as §1

EKVX = test system: EKVX
Outline: as §1

EPLC-272H = test system: EPLC-272H
Outline: as §1

HCC-44 = test system: HCC-44
Outline: as §1

LOU-NH91 = test system: LOU-NH91
Outline: as §1

NCI-H1650 = test system: NCI-H1650
Outline: as §1

NCI-H1734 = test system: NCI-H1734
Outline: as §1

NCI-H1793 = test system: NCI-H1793
Outline: as §1

NCI-H1993 = test system: NCI-H1993
Outline: as §1

NCI-H2023 = test system: NCI-H2023
Outline: as §1

NCI-H2085 = test system: NCI-H2085
Outline: as §1

NCI-H2170 = test system: NCI-H2170
Outline: as §1

NCI-H2347 = test system: NCI-H2347
Outline: as §1

NCI-H2405 = test system: NCI-H2405
Outline: as §1

NCI-H3122 = test system: NCI-H3122
Outline: as §1

NCI-H441 = test system: NCI-H441
Outline: as §1

NCI-H520 = test system: NCI-H520
Outline: as §1

NCI-H647 = test system: NCI-H647
Outline: as §1

PC-14 = test system: PC-14
Outline: as §1

RERF-LC-KJ = test system: RERF-LC-KJ
Outline: as §1

SW 900 = test system: SW 900
Outline: as §1

C[C@@H]1CN(CC(=O)Nc2ccc3c(c2)Cc2cccc(-c4cc(=O)cc(N5CCOCC5)o4)c2S3)C[C@H](C)O1 + CC(=O)Nc1cccc(-n2c(=O)n(C3CC3)c(=O)c3c(Nc4ccc(I)cc4F)n(C)c(=O)c(C)c32)c1 [Trametinib] (partner 0.02 µM)
relative viability (201T; first compound 0.04 µM): 0.732
relative viability (201T; first compound 0.1265 µM): 0.728
relative viability (201T; first compound 0.4 µM): 0.675
relative viability (201T; first compound 4 µM): 0.739
relative viability (COR-L23; first compound 0.04 µM): 0.596
relative viability (COR-L23; first compound 0.1265 µM): 0.611
relative viability (COR-L23; first compound 0.4 µM): 0.624
relative viability (COR-L23; first compound 4 µM): 0.447
relative viability (EKVX; first compound 0.04 µM): 0.364
relative viability (EKVX; first compound 0.1265 µM): 0.369
relative viability (EKVX; first compound 0.4 µM): 0.349
relative viability (EKVX; first compound 4 µM): 0.294
relative viability (EPLC-272H; first compound 0.04 µM): 0.281
relative viability (EPLC-272H; first compound 0.1265 µM): 0.289
relative viability (EPLC-272H; first compound 0.4 µM): 0.281
relative viability (EPLC-272H; first compound 4 µM): 0.263
relative viability (HCC-44; first compound 0.04 µM): 1.05
relative viability (HCC-44; first compound 0.1265 µM): 1.03
relative viability (HCC-44; first compound 0.4 µM): 1.1
relative viability (HCC-44; first compound 4 µM): 1.03
relative viability (LOU-NH91; first compound 0.04 µM): 0.812
relative viability (LOU-NH91; first compound 0.1265 µM): 0.788
relative viability (LOU-NH91; first compound 0.4 µM): 0.717
relative viability (LOU-NH91; first compound 4 µM): 0.715
relative viability (NCI-H1650; first compound 0.04 µM): 0.535
relative viability (NCI-H1650; first compound 0.1265 µM): 0.548
relative viability (NCI-H1650; first compound 0.4 µM): 0.596
relative viability (NCI-H1650; first compound 4 µM): 0.286
relative viability (NCI-H1734; first compound 0.04 µM): 0.698
relative viability (NCI-H1734; first compound 0.1265 µM): 0.756
relative viability (NCI-H1734; first compound 0.4 µM): 0.632
relative viability (NCI-H1734; first compound 4 µM): 0.788
relative viability (NCI-H1793; first compound 0.04 µM): 0.349
relative viability (NCI-H1793; first compound 0.1265 µM): 0.415
relative viability (NCI-H1793; first compound 0.4 µM): 0.381
relative viability (NCI-H1793; first compound 4 µM): 0.34
relative viability (NCI-H1993; first compound 0.04 µM): 0.521
relative viability (NCI-H1993; first compound 0.1265 µM): 0.565
relative viability (NCI-H1993; first compound 0.4 µM): 0.521
relative viability (NCI-H1993; first compound 4 µM): 0.478
relative viability (NCI-H2023; first compound 0.04 µM): 0.674
relative viability (NCI-H2023; first compound 0.1265 µM): 0.507
relative viability (NCI-H2023; first compound 0.4 µM): 0.509
relative viability (NCI-H2023; first compound 4 µM): 0.311
relative viability (NCI-H2085; first compound 0.04 µM): 0.51
relative viability (NCI-H2085; first compound 0.1265 µM): 0.532
relative viability (NCI-H2085; first compound 0.4 µM): 0.483
relative viability (NCI-H2085; first compound 4 µM): 0.465
relative viability (NCI-H2170; first compound 0.04 µM): 1.04
relative viability (NCI-H2170; first compound 0.1265 µM): 0.931
relative viability (NCI-H2170; first compound 0.4 µM): 0.877
relative viability (NCI-H2170; first compound 4 µM): 0.847
relative viability (NCI-H2347; first compound 0.04 µM): 0.273
relative viability (NCI-H2347; first compound 0.1265 µM): 0.331
relative viability (NCI-H2347; first compound 0.4 µM): 0.319
relative viability (NCI-H2347; first compound 4 µM): 0.238
relative viability (NCI-H2405; first compound 0.04 µM): 0.7
relative viability (NCI-H2405; first compound 0.1265 µM): 0.651
relative viability (NCI-H2405; first compound 0.4 µM): 0.59
relative viability (NCI-H2405; first compound 4 µM): 0.66
relative viability (NCI-H3122; first compound 0.04 µM): 0.273
relative viability (NCI-H3122; first compound 0.1265 µM): 0.263
relative viability (NCI-H3122; first compound 0.4 µM): 0.212
relative viability (NCI-H3122; first compound 4 µM): 0.189
relative viability (NCI-H441; first compound 0.04 µM): 0.539
relative viability (NCI-H441; first compound 0.1265 µM): 0.481
relative viability (NCI-H441; first compound 0.4 µM): 0.305
relative viability (NCI-H441; first compound 4 µM): 0.368
relative viability (NCI-H520; first compound 0.04 µM): 0.675
relative viability (NCI-H520; first compound 0.1265 µM): 0.629
relative viability (NCI-H520; first compound 0.4 µM): 0.626
relative viability (NCI-H520; first compound 4 µM): 0.556
relative viability (NCI-H647; first compound 0.04 µM): 0.565
relative viability (NCI-H647; first compound 0.1265 µM): 0.415
relative viability (NCI-H647; first compound 0.4 µM): 0.414
relative viability (NCI-H647; first compound 4 µM): 0.251
relative viability (PC-14; first compound 0.04 µM): 0.872
relative viability (PC-14; first compound 0.1265 µM): 0.694
relative viability (PC-14; first compound 0.4 µM): 0.719
relative viability (PC-14; first compound 4 µM): 0.467
relative viability (RERF-LC-KJ; first compound 0.04 µM): 0.874
relative viability (RERF-LC-KJ; first compound 0.1265 µM): 0.796
relative viability (RERF-LC-KJ; first compound 0.4 µM): 0.757
relative viability (RERF-LC-KJ; first compound 4 µM): 0.695
relative viability (SW 900; first compound 0.04 µM): 0.894
relative viability (SW 900; first compound 0.1265 µM): 0.696
relative viability (SW 900; first compound 0.4 µM): 0.892
relative viability (SW 900; first compound 4 µM): 0.572

From the supplement of paper PMC10307832
